Entries after “also recorded” stand apart in the source; their conditions may differ. Where a SMILES comes first, the peptide text is derived from it. Bridges are numbered along the chain shown (N, C = ends). The star is where a group is joined. Lauroyl = CCCCCCCCCCCC(=O)*
System: human umbilical chord artery endothelial cells (HUAEC)
Assay: Ca-influx after vasopressin analog stimulation of HUAEC, samples pre-incubated in human serum
Type: cell-based
Set-up: key to Activity of Various Vasopressin Analogs, 0 h / Activity of Various Vasopressin Analogs, 1 h / Activity of Various Vasopressin Analogs, 2 h / Activity of Various Vasopressin Analogs, 4 h: “−” for no detectable activity; “+” to “+++” for slight to high activity; “+” to “+++” for slight to high activity; “+” to “+++” for slight to high activity
Description: Ca-influx after vasopressin analog stimulation of human umbilical chord artery endothelial cells (HUAEC) was used to test the biological activity of the various vasopressin analogs. The material used were: 75 cm^2 tissue culture flasks, BD Bioscience, Bedford Mass. (catalogue number 137787) with 0.2 μm vented blue plug seal caps (catalogue number 353136); human umbilical artery endothelial cells (HUAEC), Lonza, Walkersville, Md. (catalogue number CC-2520); EGM-2 fully supplement medium, Lonza, Walkersville, Md. (catalogue number CC-3162); Fura-2 AM, Invitrogen/Molecular Probes, Carlsbad, Calif. (catalogue number F-1221) (Fura-2 AM is a high affinity, intracellular calcium indicator that is ratiometric and UV light-excitable; the acetoxymethyl (AM) ester form is useful for noninvasive intracellular loading as it is cell permeable. Once inside the cell the ester is clipped which renders the Fura-2 molecule cell impermeable and therefore trapped inside.); terlipressin derivatives custom made by Anaspec, San Jose Calif., according to inventors specifications; pooled human serum, Sigma, St. Louis, Mo. (catalogue number H4522); phosphate buffered saline (PBS), Fisher Scientific, Fair Lawn, N.J. (catalogue number BP399-500); trypsin-EDTA solution, 0.25%, Invitrogen/Gibco, Carlsbad, Calif. (catalogue number 25200-072); heat inactivated fetal bovine serum (FBS), Invitrogen/Gibco, Carlsbad, Calif. (catalogue number 10438-026); black polystyrene 96 well flat-bottom assay plates, Corning Inc., Corning, N.Y. (catalogue number 3916); Chameleon plate multilabel detection reader, Hidex, Turku, Finland, distributed by Bioscan, Washington, D.C.; dimethyl sulfoxide (DMSO), Fisher Scientific, Fair Lawn, N.J. (catalogue number D-136-1).
The methods used for tissue or cell culture are as follows: a vial of HUAEC (>0.5×10^6 cells) was thawed and seeded in two 75 cm^2 flasks with 15 ml EGM-2 medium each. Cells were grown over night and medium was changed. Media in the flasks were changed on a Monday, Wednesday, Friday schedule. Cells were split at approximately 80% confluency (using trypsin). Media were removed and the flasks were washed with 10 ml 1×PBS. The PBS was removed, 1.5 ml trypsin-EDTA solution was added and incubated for 5 min at 37° C. Three ml of FBS added and the cells were counted. The cells were centrifuged at 200×G for 5 min, resuspended in EGM-2 medium and distributed into new 75 cm2 flasks @ 3000-5000 cells per cm2.
To prepare for the Ca2+-influx assay, cells were distributed into one black 96 well plate @ 10^5 cells/well. Cells were allowed to adhere overnight and the medium was then removed. Fifty μg Fura-2 was dissolved in 50 μl DMSO and added to 10 ml PBS/2% FBS. The cells were stained with 20 μl of 5 μg/ml Fura-2 in PBS/2% FBS for 2 h, then 180 μl EGM-2 medium supplemented with CaCl2 and glucose was added (10 mM CaCl2 and 11.1 mM glucose final concentrations).
To prepare analogs for testing, 50 uM terlipressin (or derivative) stock solution in DMSO was prepared. […] (placed on ice after incubation).
To measure Ca-influx, Fura-2 fluorescence was measured for 4 repetitions per well at 340 nm ex/510 nm em and 420 nm ex/510 nm em (4 measurement before and 16 after injection of drug. At t=12 sec, 20 μl of terlipressin or derivative was injected as a 500 nM solution (or serum) for a final concentration of 50 nM per well. Fura-2 fluorescence was measured for […] per well at 340 nm ex/510 nm em and 420 nm ex/510 nm em (4 measurements before and 16 after injection of drug). The controls included injected human serum alone, and terlipressin or derivative dissolved in PBS as […]. All measurements were done in hexuplicate.
Data analysis was done using Graphpad Prism version 5.0 software (Graphpad software Inc, San Diego, Calif.). […]

**Q.** How did the “Activity of Various Vasopressin Analogs, 0 h” value (0 h pre-incubation in pooled human serum at 37° C. (serum present), Ca-influx in HUAEC, 50 nM per well) turn out when `CCCCCCCCCCCC(=O)NCC(=O)NCC(=O)NCC(=O)N[C@H]1CSSC[C@@H](C(=O)N2CCC[C@H]2C(=O)N[C@@H](CCCCN)C(=O)NCC(N)=O)NC(=O)[C@H](CC(N)=O)NC(=O)[C@H](CCC(N)=O)NC(=O)[C@H](Cc2ccccc2)NC(=O)[C@H](Cc2ccc(O)cc2)NC1=O` [C12TerA, CH3(CH2)10CO-Gly-Gly-Gly-Cys-Tyr-Phe-Gln-Asn-Cys-Pro-Lys-Gly-NH2] (Lauroyl-GGGCYFQNCPKG-NH2; disulfide 4-9) was run?
**A.** +++

**Q.** And the “Activity of Various Vasopressin Analogs, 1 h” value (1 h pre-incubation in pooled human serum at 37° C., Ca-influx in HUAEC, 50 nM per well)?
**A.** +++

**Q.** What about the “Activity of Various Vasopressin Analogs, 2 h” value (2 h pre-incubation in pooled human serum at 37° C., Ca-influx in HUAEC, 50 nM per well) of the same compound?
**A.** +++

**Q.** And the “Activity of Various Vasopressin Analogs, 4 h” value (4 h pre-incubation in pooled human serum at 37° C., Ca-influx in HUAEC, 50 nM per well)?
**A.** +++

**Q.** And the “calcium influx after 2-hour incubation in human serum” value (FIG. 11, Fura-2 fluorescence, in words)?
**A.** able to induce calcium influx; also recorded: pronounced calcium influx
